Experimental data taken from ChEMBL document CHEMBL1132532, “Correlation of anti-HIV activity with structure: use of electrostatic potential and conformational analysis” (Bioorg Med Chem Lett, 1999).

What was measured:
Format in all cases: functional, cell-based
Details in all cases: Homo sapiens
[1] = system: MT4; assay: The compound was tested for anti HIV-activity (active) against MT-4 cell line
[2] = system: PBMC; assay: The compound was tested for anti HIV-activity (active) against PBM cell line
[3] = system: ATH-8 cell line; assay: The compound was tested for anti HIV-activity (active) against ATH8 cell line
[4] = system: MT2; assay: The compound was tested for anti HIV-activity (active) against MT-2 cell line

IC50 [3] | Compound | IC50 [1] | also measured
– | Nc1ncnc2c1ncn2[C@@H]1O[C@H](CO)[C@H]1CO | 4 µM | –
– | Nc1ncnc2c1ncn2[C@@H]1CO[C@H](CO)C1 | – | IC50 [2]: 0.67 µM
– | Nc1ncnc2c1ncn2[C@@H]1C[C@H](CO)CO1 | > 200 µM | –
– | Nc1ncnc2c1ncn2[C@H]1C[C@@H](CO)CO1 | > 200 µM | –
15 µM | Nc1ncnc2c1ncn2[C@H]1CO[C@@H](CO)C1 | 43 µM | –
0.19 µM | Nc1nc(O)c2ncn(C3C=CC(CO)O3)c2n1 (stereo not drawn) | – | IC50 [4]: 0.19 µM
– | Nc1nc(O)c2ncn(C3COC(CO)C3)c2n1 (stereo not drawn) | > 200 µM | –
– | Nc1ccn(C2COC(CO)C2)c(=O)n1 (stereo not drawn) | > 200 µM | –
– | Cc1cn(C2COC(CO)C2)c(=O)[nH]c1=O (stereo not drawn) | > 200 µM | –
0.4 µM | Cc1cn([C@H]2C[C@H](N=[N+]=[N-])[C@@H](CO)O2)c(=O)[nH]c1=O [ZIDOVUDINE] | – | IC50 [2]: 0.004 µM
